Structures can show the parent of a compound that is named as a salt.
What was measured:
[1] = Physical stability in crystalline form by thermogravimetric analysis (TGA); type: physicochemical; conditions: 55° C.; for weight loss vs time (TGA): crystalline form
Procedure: The physical stability of compounds of the present invention and dimethyl fumarate (DMF) were measured via thermogravimetric analysis (TGA).

[2] = Chemical stability of MMF prodrugs in pH 8 phosphate buffer; type: physicochemical; conditions: 50 mM buffer phosphate pH 8, 37° C., HPLC-UV, first-order decay
Procedure: Stock solutions of the compounds in acetonitrile or acetonitrile/MeOH were prepared at 0.05M. A 0.010 mL aliquot of the stock was spiked into 1 mL of 50 mM buffer phosphate pH 8 and incubated at 37° C. Typically, aliquots (0.010 mL) were sampled at different time points and immediately injected in the HPLC with UV detection (211 nm). The peak areas corresponding to the compounds were plotted against time and the data were fitted to a first-order mono-exponential decay where the rate constant and the half-life were determined from the slope (Table 2).

Compound: COC(=O)/C=C/C(=O)OC [DMF, dimethyl fumarate, reference compound]
- weight loss (TGA) ([1]; in less than 2 hours): ~100%

Compound: COC(=O)/C=C/C(=O)OCCN(C)S(C)(=O)=O [Compound 1, Methyl (2-(N-methylmethylsulfonamido)ethyl) fumarate]
- pH 8 (t½, min) [2]: 187 min
- weight loss vs time (TGA) [1]: no change

Compound: COC(=O)/C=C/C(=O)OCCN1CCCS1(=O)=O [Compound 6, 2-(1,1-Dioxidoisothiazolidin-2-yl)ethyl methyl fumarate]
- pH 8 (t½, min) [2]: 202 min

Compound: COC(=O)/C=C/C(=O)OCCNS(C)(=O)=O [Compound 2, Methyl (2-(methylsulfonamido)ethyl) fumarate]
- pH 8 (t½, min) [2]: 143.5 min
- weight loss vs time (TGA) [1]: no change

Reference: patent US10301256B2, “Sulfonamide and sulfinamide prodrugs of fumarates and their use in treating various diseases” (Alkermes Pharma Ireland Limited, priority 2014, dated 2019)
